Values of other authors as cited in patent US20140072530A1, “TREATMENT OF HIV” (priority 2006, published 2014).

What was measured:
[1] = test system: whole blood samples stimulated with LPS; conditions: LPS-stimulated whole blood of HIV patients; concentration-dependent
[2] = test system: normal peripheral blood mononuclear cells (PBMC); conditions: induced by HIV envelope glycoprotein gp 120, normal PBMC

Row | Substance | production of IL-1 [1] | production of TNF-α [1] | production of IL-1β [2] | production of TNF-α [2]
1 | ACTH (1-24): Melanocortin peptide, fragment 1-24 of adrenocorticotropic hormone (SYSMEHFRWGKPVGKKRRPVKVYP; Corticotropin; UniProt P01189 138-161, looked up, fragment) | reduced | reduced |  | 
2 | adrenocorticotropic hormone [ACTH (1-39] (SYSMEHFRWGKPVGKKRRPVKVYPNGAEDESAEAFPLEF; Corticotropin; UniProt P01189 138-176, looked up) [ACTH (1-39), Proopiomelanocortin-derived melanocortin peptide] | reduced | reduced |  | 
3 | α-melanocyte-stimulating hormone [α-MSH (1-13), α-melanocyte-stimulating hormone [α-MSH (1-13)]] | reduced | reduced | inhibit | inhibit
